Assay results taken from PMC7181660, “A novel specific PERK activator reduces toxicity and extends survival in Huntington's disease models” (Scientific Reports, 2020).

How the values were obtained:
Assay in all cases: biochemical
Type in all cases: biochemical
[1] = target: panel of 391 kinases (Homo sapiens, UniProt Q07912); settings: ACK1, MK-28 1 µM, ATP 1 µM
[2] = target: panel of 391 kinases (Homo sapiens, UniProt Q96BR1); settings: SGK3/SGKL, MK-28 1 µM, ATP 1 µM
[3] = target: panel of 391 kinases (Homo sapiens, UniProt O15530); settings: PDK1/PDPK1, MK-28 1 µM, ATP 1 µM
[4] = target: panel of 391 kinases (Homo sapiens, UniProt Q96PY6); settings: NEK1, MK-28 1 µM, ATP 1 µM
[5] = target: panel of 391 kinases (Homo sapiens, UniProt Q16832); settings: DDR2, MK-28 1 µM, ATP 1 µM
[6] = target: panel of 391 kinases (Homo sapiens, UniProt P35916); settings: FLT4/VEGFR3, MK-28 1 µM, ATP 1 µM
[7] = target: panel of 391 kinases (Homo sapiens, UniProt O00418); settings: kinase EEF2K, compound at 1 µM, single dose in duplicates, 1 µM ATP
[8] = target: panel of 391 kinases (Homo sapiens, UniProt P08581); settings: c-MET, MK-28 1 µM, ATP 1 µM
[9] = target: panel of 391 kinases (Homo sapiens, UniProt Q9UQB9); settings: Aurora C, MK-28 1 µM, ATP 1 µM
[10] = target: panel of 391 kinases (Homo sapiens, UniProt Q86UX6); settings: STK32C/YANK3, MK-28 1 µM, ATP 1 µM
[11] = target: panel of 391 kinases (Homo sapiens, UniProt P54764); settings: EPHA4, MK-28 1 µM, ATP 1 µM
[12] = target: panel of 391 kinases (Homo sapiens, UniProt P28482); settings: ERK2/MAPK1, MK-28 1 µM, ATP 1 µM
[13] = target: panel of 391 kinases (Homo sapiens, UniProt Q52WX2); settings: SBK1, MK-28 1 µM, ATP 1 µM
[14] = target: panel of 391 kinases (Homo sapiens, UniProt Q6IQ55); settings: TTBK2, MK-28 1 µM, ATP 1 µM
[15] = target: panel of 391 kinases (Homo sapiens, UniProt P35968); settings: KDR/VEGFR2, MK-28 1 µM, ATP 1 µM
[16] = target: panel of 391 kinases (Homo sapiens, UniProt Q5TCX8); settings: MLK4, MK-28 1 µM, ATP 1 µM
[17] = target: panel of 391 kinases (Homo sapiens, UniProt P30530); settings: AXL, MK-28 1 µM, ATP 1 µM
[18] = target: panel of 391 kinases (Homo sapiens, UniProt P09619); settings: PDGFRb, MK-28 1 µM, ATP 1 µM
[19] = target: panel of 391 kinases (Homo sapiens, UniProt Q09013); settings: DMPK, MK-28 1 µM, ATP 1 µM
[20] = target: panel of 391 kinases (Homo sapiens, UniProt Q9BXA7); settings: STK22D/TSSK1, MK-28 1 µM, ATP 1 µM
[21] = target: panel of 391 kinases (Homo sapiens, UniProt Q6XUX3); settings: RIPK5, MK-28 1 µM, ATP 1 µM
[22] = target: panel of 391 kinases (Homo sapiens, UniProt P07948); settings: LYN, MK-28 1 µM, ATP 1 µM
[23] = target: panel of 391 kinases (Homo sapiens, UniProt Q15349); settings: RSK3, MK-28 1 µM, ATP 1 µM
[24] = target: panel of 391 kinases (Homo sapiens, UniProt P41240); settings: CSK, MK-28 1 µM, ATP 1 µM
[25] = target: panel of 391 kinases (Homo sapiens, UniProt P04629); settings: TRKA, MK-28 1 µM, ATP 1 µM
[26] = target: panel of 391 kinases (Homo sapiens, UniProt Q06187); settings: BTK, MK-28 1 µM, ATP 1 µM
[27] = read-out: % Enzyme Activity (relative to DMSO controls)

SMILES: CN(/N=C\c1ccc(O)c(O)c1)c1nc(-c2ccccc2)cc(-c2ccccc2)n1 [MK-28]
- % Enzyme Activity (relative to DMSO controls) [1]: 98.95%
- remaining activity at 1 µM [1, 27]: 113%
- % Enzyme Activity (relative to DMSO controls) [2]: 103.83%
- remaining activity at 1 µM [2, 27]: 105%
- % Enzyme Activity (relative to DMSO controls) [3]: 99.62%
- remaining activity at 1 µM [3, 27]: 100%
- % Enzyme Activity (relative to DMSO controls) [4]: 92.29%
- remaining activity at 1 µM [4, 27]: 94.7%
- % Enzyme Activity (relative to DMSO controls) [5]: 95.21%
- remaining activity at 1 µM [5, 27]: 97.4%
- % Enzyme Activity (relative to DMSO controls) [6]: 92.88%
- remaining activity at 1 µM [6, 27]: 94.1%
- % Enzyme Activity (relative to DMSO controls) [7]: 90.89%
- remaining activity at 1 µM [7, 27]: 91%
- % Enzyme Activity (relative to DMSO controls) [8]: 96.37%
- remaining activity at 1 µM [8, 27]: 102%
- % Enzyme Activity (relative to DMSO controls) [9]: 93.97%
- remaining activity at 1 µM [9, 27]: 95.6%
- % Enzyme Activity (relative to DMSO controls) [10]: 104.62%
- remaining activity at 1 µM [10, 27]: 112%
- % Enzyme Activity (relative to DMSO controls) [11]: 100.54%
- remaining activity at 1 µM [11, 27]: 101%
- % Enzyme Activity (relative to DMSO controls) [12]: 105.81%
- remaining activity at 1 µM [12, 27]: 107%
- % Enzyme Activity (relative to DMSO controls) [13]: 97.75%
- remaining activity at 1 µM [13, 27]: 97.8%
- % Enzyme Activity (relative to DMSO controls) [14]: 97.38%
- remaining activity at 1 µM [14, 27]: 98.9%
- % Enzyme Activity (relative to DMSO controls) [15]: 98.38%
- remaining activity at 1 µM [15, 27]: 99.8%
- % Enzyme Activity (relative to DMSO controls) [16]: 96.53%
- remaining activity at 1 µM [16, 27]: 97.1%
- % Enzyme Activity (relative to DMSO controls) [17]: 98.72%
- remaining activity at 1 µM [17, 27]: 99.5%
- % Enzyme Activity (relative to DMSO controls) [18]: 99.16%
- remaining activity at 1 µM [18, 27]: 99.5%
- % Enzyme Activity (relative to DMSO controls) [19]: 103.01%
- remaining activity at 1 µM [19, 27]: 104%
- % Enzyme Activity (relative to DMSO controls) [20]: 91.99%
- remaining activity at 1 µM [20, 27]: 93.3%
- % Enzyme Activity (relative to DMSO controls) [21]: 103.40%
- remaining activity at 1 µM [21, 27]: 105%
- % Enzyme Activity (relative to DMSO controls) [22]: 96.29%
- remaining activity at 1 µM [22, 27]: 96.5%
- % Enzyme Activity (relative to DMSO controls) [23]: 100.80%
- remaining activity at 1 µM [23, 27]: 103%
- % Enzyme Activity (relative to DMSO controls) [24]: 96.35%
- remaining activity at 1 µM [24, 27]: 96.9%
- % Enzyme Activity (relative to DMSO controls) [25]: 106.86%
- remaining activity at 1 µM [25, 27]: 108%
- % Enzyme Activity (relative to DMSO controls) [26]: 85.19%
- remaining activity at 1 µM [26, 27]: 85.4%
